The text below walks through data of PubChem BioAssay (NCI).

Some test systems named below: 786-0 renal; A498 renal; DU-145 prostate; HCC-2998 colon; SN12C renal; SK-OV-3 ovarian; NCI-H522 lung; NCI-H460 lung; KM12 colon; MDA-MB-231 breast.
Assay in all cases: growth of human tumour cells (NCI), 48 h

SMILES strings stand for the structures.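 Interpolation was linear, between the two tested concentrations surrounding the appropriate level; five concentrations were tested over 48 hours in 96-well plates. GI50 is the concentration that inhibits growth by half. Definition used: TGI = concentration required for complete inhibition of growth.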

As to `COC(=O)c1cc2c([nH]c3ccccc32)c(-c2nc3cc(N(S(=O)(=O)c4ccc(C)cc4)S(=O)(=O)c4ccc(C)cc4)c(OC)cc3cc2CO)n1`, the GI50 in the assay on 786-0 renal was 32.1 µM; in the assay on A498 renal it was more than 100 µM; in the assay on DU-145 prostate it was more than 100 µM; in the assay on HCC-2998 colon it was more than 100 µM; in the assay on SN12C renal, more than 100 µM; with SK-OV-3 ovarian, more than 100 µM. The GI50 in the assay on NCI-H522 lung is more than 100 µM; in the assay on NCI-H460 lung it was more than 100 µM; in the assay with KM12 colon it was more than 100 µM; in the assay with MDA-MB-231 breast, 78.6 µM. The TGI is 87.8 µM in the assay with 786-0 renal; more than 100 µM with A498 renal; more than 100 µM in the assay on DU-145 prostate; more than 100 µM in the assay with HCC-2998 colon; more than 100 µM with SN12C renal; more than 100 µM in the assay with SK-OV-3 ovarian. Moreover, the TGI in the assay with NCI-H522 lung, in the assay with NCI-H460 lung, in the assay with KM12 colon and in the assay with MDA-MB-231 breast was more than 100 µM in each case.

Turning to `Cc1nn(-c2ccccc2)c2ncc3c(c12)C(=O)N(Cc1ccccc1)C3=O`, the GI50 was 1.94 µM with 786-0 renal; 3.51 µM in the assay on A498 renal; 72.2 µM with DU-145 prostate; more than 100 µM with HCC-2998 colon; 9.29 µM in the assay with SN12C renal; 5.73 µM with SK-OV-3 ovarian. Further, the GI50 was 19.8 µM with NCI-H522 lung, 2.55 µM in the assay with NCI-H460 lung, more than 100 µM in the assay on KM12 colon and 5.11 µM in the assay on MDA-MB-231 breast. The TGI in the assay on 786-0 renal was 5.12 µM; in the assay on A498 renal, 21.8 µM; in the assay with DU-145 prostate, more than 100 µM; in the assay on HCC-2998 colon, more than 100 µM; in the assay on SN12C renal, more than 100 µM; with SK-OV-3 ovarian it was more than 100 µM. The TGI is more than 100 µM in the assay on NCI-H522 lung, more than 100 µM with NCI-H460 lung, more than 100 µM with KM12 colon and 50.2 µM in the assay on MDA-MB-231 breast.

Regarding `COc1cc(C2C3=C(COC3=O)N(CCO)c3cc4c(cc32)CCC4)cc(OC)c1OC` (centres undefined), the GI50 in the assay with 786-0 renal is 0.119 µM; with A498 renal, 0.0722 µM; in the assay with DU-145 prostate, 0.0787 µM; with HCC-2998 colon, 0.0693 µM; in the assay on SN12C renal, 0.142 µM; with SK-OV-3 ovarian, 0.0978 µM. Further, the GI50 in the assay with NCI-H522 lung was 0.041 µM; with NCI-H460 lung it was 0.106 µM; in the assay on KM12 colon, 0.0707 µM; in the assay on MDA-MB-231 breast, 0.137 µM. Besides, the TGI was 1.76 µM in the assay with A498 renal; 0.214 µM with DU-145 prostate; 0.164 µM in the assay on HCC-2998 colon; more than 32.5 µM in the assay on SN12C renal; 0.366 µM in the assay with SK-OV-3 ovarian; 0.212 µM in the assay on NCI-H522 lung. The TGI was 1.1 µM with NCI-H460 lung, 0.29 µM in the assay on KM12 colon and more than 32.5 µM in the assay with MDA-MB-231 breast.

As to `Cn1cc(C2=C(c3cn(CCCSC(=N)N)c4ccccc34)C(=O)NC2=O)c2ccccc21`, the GI50 was 4.71 µM in the assay with 786-0 renal; 5 µM in the assay with A498 renal; 4.78 µM in the assay with DU-145 prostate; 3.05 µM with HCC-2998 colon; 1.83 µM with SN12C renal; 5 µM with SK-OV-3 ovarian. Besides, the GI50 in the assay with NCI-H522 lung was 1.51 µM; with NCI-H460 lung it was 3.65 µM; in the assay on KM12 colon, 2.07 µM; in the assay on MDA-MB-231 breast it was 2.11 µM. The TGI with 786-0 renal was 10.9 µM; in the assay with A498 renal it was 12 µM; with DU-145 prostate, 12.5 µM; with HCC-2998 colon, 8.89 µM; with SN12C renal it was 5.56 µM; in the assay on SK-OV-3 ovarian it was 15.4 µM. Also, the TGI came to 5.27 µM in the assay on NCI-H522 lung, 7.54 µM with NCI-H460 lung, 5.97 µM with KM12 colon and 9.52 µM in the assay with MDA-MB-231 breast.

Regarding `CCN(CC)CCC(CNc1c2ccc(Cl)cc2nc2ccc(OC)cc12)c1ccccc1` (centres undefined), the GI50 is 1.38 µM in the assay on 786-0 renal; 1.4 µM in the assay on A498 renal; 1.32 µM with DU-145 prostate; 1.09 µM in the assay on HCC-2998 colon; 1.15 µM in the assay with SN12C renal; 1.64 µM with SK-OV-3 ovarian. Further, the GI50 was 0.555 µM in the assay on NCI-H522 lung, 0.768 µM with NCI-H460 lung, 0.996 µM with KM12 colon and 1.01 µM with MDA-MB-231 breast. For the same molecule, the TGI in the assay on 786-0 renal stood at 3.11 µM; in the assay with A498 renal, 2.75 µM; in the assay on DU-145 prostate, 6.09 µM; in the assay with HCC-2998 colon, 2.39 µM; with SN12C renal it was 4.98 µM; with SK-OV-3 ovarian it was 3.5 µM. The TGI in the assay with NCI-H522 lung stood at 2.1 µM; in the assay on NCI-H460 lung, 3.99 µM; with KM12 colon, 4.47 µM; in the assay with MDA-MB-231 breast, 2.73 µM.

`CC[N+]1(C)CCC(O)(/C=C/c2ccccc2)C(C(=O)/C=C/c2ccccc2)C1` (centres undefined): the TGI came to 13.9 µM with 786-0 renal; 38.9 µM with A498 renal; 39.1 µM in the assay on DU-145 prostate; 30.8 µM with HCC-2998 colon; 18 µM with SN12C renal; 32.9 µM in the assay on SK-OV-3 ovarian. In addition, the TGI in the assay on NCI-H522 lung worked out at 3.78 µM; in the assay on NCI-H460 lung, 43.5 µM; in the assay on KM12 colon, 10.2 µM; with MDA-MB-231 breast, 31 µM.

In the case of `O=C1C2=C(Nc3cc([N+](=O)[O-])ccc3N2)OC1c1c[nH]c2ccc(COc3ccccc3)cc12` (centres undefined), the TGI in the assay with 786-0 renal, with A498 renal, in the assay with DU-145 prostate, with HCC-2998 colon, in the assay on SN12C renal and with SK-OV-3 ovarian was more than 100 µM throughout. Further, the TGI with NCI-H522 lung, with NCI-H460 lung, in the assay with KM12 colon and in the assay with MDA-MB-231 breast was more than 100 µM each time.

On to `O=C(/C=C\c1ccc(Cl)c(Cl)c1)c1ccccc1`, for which the GI50 with 786-0 renal is 8.07 µM; in the assay with A498 renal, 12.4 µM; in the assay on DU-145 prostate it was 10.1 µM; in the assay on HCC-2998 colon it was 4.75 µM; with SN12C renal it was 6.77 µM; in the assay on SK-OV-3 ovarian, 14.1 µM. In addition, the GI50 was 10.2 µM in the assay on NCI-H522 lung, 15.9 µM in the assay with NCI-H460 lung, 3.07 µM in the assay on KM12 colon and 12.3 µM in the assay with MDA-MB-231 breast. The TGI in the assay on 786-0 renal was determined as 21.6 µM; in the assay on A498 renal, 25.2 µM; in the assay with DU-145 prostate, 21.9 µM; in the assay on HCC-2998 colon, 16.9 µM; with SN12C renal it was 19.9 µM; in the assay with SK-OV-3 ovarian it was 29.8 µM. The TGI in the assay on NCI-H522 lung turned out to be 22.2 µM; with NCI-H460 lung it was 32.9 µM; with KM12 colon, 8.88 µM; with MDA-MB-231 breast it was 25.2 µM.
